Assay results as given in EP1951194B1, “ANTIMICROBIAL DECAPEPTIDE COMPOSITION FOR ORAL HYGIENE” (U.S. Government, as represented by the Secretary of the Army, priority 2005, dated 2018).
Entries after “also recorded” stand apart in the source; their conditions may differ. Ends that are not written are not given here.

What was measured:
oral biofilms [1] = test: In vitro plaque assay, viable counts of biofilms on saliva-coated HA disks; assay type: cell-based, human salivary bacteria; details: for reduction of viability, intact 66 h-old oral biofilms, compared to water treatment: KSL 200 µg/ml, benzalkonium chloride 0.001%, alone or combined, chlorhexidine positive control
Experimental: In conjunction with the dual flow cell system, a modification of an in vitro plaque model of biofilm formation described by Guggenheim et al. (Guggenheim et al., 2001) was used to determine the effects of tested antimicrobials and other agents on developed oral biofilms (see Appendix I for details). HA disks (Clarkson, south Williamsport, PA) were employed as substrates for salivary bacteria to form biofilms. […] Following 30 min exposure at 37°C, disks were rinsed with 3 × 1 ml of saline and transferred to sterile 15 ml polypropylene tubes containing 1 ml PBS. Biofilm cells adherent to surfaces (after treatment) were recovered by sonicating for 2 min at 5 watts with a Microson ultrasonic cell disrupter equipped with a cup horn (Misonix Inc., Farmingdale, NY). Settings including the time interval used in the sonication were pre-determined empirically to yield maximal recovery of adherent biofilm cells. The effect of KSL on disrupted biofilms was assessed by recovering biofilm cells from HA disks (45 h-old biofilms) through sonication as described above. The detached biofilm cells (in sterile dH2O) were mixed with an equal volume of aqueous KSL to obtain a final peptide concentration of 200 µg/ml, and the reaction mixtures incubated at 37°C for 30 min. The interactions of KSL and suspended biofilm cells were terminated by washing in PBS. To determine the effect of the surface-active agent (benzalkonium chloride; Sigma, St. […] Viable counts of biofilm cells derived from treated disks or disrupted biofilms were determined by spiral plating serially diluted samples onto blood agar plates. […] The 45 h-old biofilms were exposed to chlorhexidine for 1 min, and to water for 30 min at 37°C.

oral biofilms [2] = test: Live/dead staining of treated biofilms, confocal laser scanning microscopy; assay type: cell-based, human salivary bacteria; details: biofilms on saliva-coated HA surfaces, BacLight, compared to control
Experimental: Untreated (a-b) and treated (c-d). Images were obtained at intervals of 2 h (a, c) and 8 h (b, d) following inoculation. […] Images of treated versus untreated biofilm cells were obtained at intervals of 2 h (a, d), 6 h (b, e), and 10 h (c, f) after inoculation of salivary bacteria into the parallel chambers of the dual flow cell. […] (C) Confocal images of control and treated biofilms grown on saliva-coated HA surfaces. Live/Dead BacLight™ Viability kit (Molecular Probes, Eugene, OR) was used to assess the viability of biofilm cells exposed to different treatments. BacLight assay solution was prepared as described by the manufacturer and the specimens were stained in dark at room temperature for 15 min. […] An excitation wavelength of 488 nm was used and the fluorescence light emitted was collected by two separate emission filters, 500-530 nm (SYTO 9, live), and 650-710 nm (propidium iodide, dead).

[3] = assay type: physicochemical
Experimental: The chewing gum formulations were prepared following a procedure described previously. The gum base was heated at a temperature between 50 and 60°C for melting. When the gum base was of the proper fluid consistency, the KSL was added as a fine powder along with the other components. The temperature was kept constant while mixing the components with the gum base in a mortar. After mixing, the homogenous chewing gum mixture was extruded, cut into squares of approximate shape and size and hardened at room temperature overnight. The composition of the gum was as follows: 550 mg of gum base, 420 mg of sorbitol, 10 mg of mannitol, 10 mg of saccharin, and 10, 20 or 30 mg of KSL (total weight: approximately 1 g). In vitro release study of KSL from chewing gums was carried out using an in vitro chewing release apparatus consisting of two modules (AB FIA, Lund, Sweden) (Fig. 1). Each module consists of a thermostatted glass cell in which two vertically oriented pistons holding an upper and a lower chewing plate are mounted. The cells were filled with 40 ml of artificial saliva and the chewing gum was loaded onto the lower chewing surface. […] The released amount of KSL was determined by RP-HPLC.

[4] = assay type: physicochemical; details: pH 5.7
Experimental: Test solutions of KSL were prepared using a stock peptide solution of 10 mg/ml in deionized water. The degradation of KSL peptide was investigated in sodium acetate (pH 4), sodium phosphate (pH 7.4) and sodium borate (pH 9) buffers at 0.1 M buffer concentration. Each buffer solution containing 200 µg/ml of KSL was incubated in a temperature-controlled oven at 25, 37 and 55°C, respectively. Samples were taken at pre-determined times and analyzed under HPLC conditions described above. The stability of KSL was studied at 37°C in artificial saliva over a three day period. Artificial saliva was used in the in vitro release studies in an attempt to simulate actual conditions of use. The ingredients of the artificial saliva were as follows: sodium chloride, 0.844 g; potassium chloride, 1.200 g; calcium chloride dihydrate, 0.193 g; magnesium chloride hexahydrate, 0.111 g; potassium phosphate dibasic, 0.342 g; water to make to 1000 ml. The pH was adjusted with hydrochloric acid solution to pH 5.7 ± 0.1 [26].

Compound	reduction of viable counts, intact biofilms (oral biofilms [1]; intact 45-h-old biofilms, KSL 200 µg/ml 30 min at 37°C, chlorhexidine 0.12% 1 min)	viability of biofilm cells by live/dead staining (oral biofilms [2])	stability of KSL in the gum formulations manufactured at 50-60°C (HPLC of released KSL) [3]	degradation in artificial saliva (HPLC) [4]	reduction of viability, intact 66 h-old oral biofilms, compared to water treatment (oral biofilms [1])	reduction of viability, intact 66 h-old oral biofilms, compared to water treatment (oral biofilms [1]; listed as Bzl)
[H]/N=C(\N/C(=N/[H])NCCCCCCNC(=N)NC(=N)Nc1ccc(Cl)cc1)Nc1ccc(Cl)cc1 [chlorhexidine, chlorhexidine digluconate]	more reduction in viability; also recorded: larger reduction of viable counts	significantly reduced the viability				
KKVVFKVKFK-NH2 [KSL, Lys-Lys-Val-Val-Phe-Lys-Val-Lys-Phe-Lys-NH2]			only an intact KSL peak	no degradation peak detected		
benzalkonium chloride		less impact on the viability			less effect on the viability	no significant reductions in viability
